Results from patent US20040087514A1, “Nutritional compositions” (priority 2002, published 2004).
Marks after values point to notes of the source that are not given here.

Key:
Type in all cases: in vivo, human
GLP-1 secretion = assay: Clinical study, GLP-1 levels after ingestion of load (Example 1); details: for GLP-1 (A): mean
Procedure: (§1) A randomized, placebo-controlled trial was performed in 20 subjects (12 women, 8 men) [body mass index (in kg/m^2): 23]. Subjects received 5 times at least one week apart- a load consisting of galactose (50 g) alone or in combination with guar gum (2,5 g), solved in 250 ml water, or 250 ml water without any additives. Prior to each treatment a catheter was placed in an anticubital vein. Eating behavior and dietary restraint status of subjects were investigated using a validated Dutch translation of the Three Factor Eating Questionnaire (TFEQ). The study was approved by the Medical Ethics Committee of the Maastricht University.

[1] = Clinical study, plasma glucose, galactose, free fatty acids, glycerol (Example 1); details: data not shown
Procedure: as §1

[2] = system: C-peptide (indicator of insulin secretion); assay: Clinical study, C-peptide levels after ingestion of load (Example 1); details: mean
Procedure: as §1

[3] = system: healthy, normal-weight subjects; assay: Clinical study, perception of satiety, Visual Analog Scale (Example 1); details: mean from 100 mm Visual Analog Scale
Procedure: as §1

insulin release = assay: Clinical study, insulin levels after ingestion of load (Example 1); details: mean
Procedure: as §1

## O=C[C@H](O)[C@@H](O)[C@@H](O)[C@H](O)CO [Galactose, galactose]
GLP-1 secretion; 0 minutes, 50 g galactose (+2,5 g guar gum) in 250 ml water
  GLP-1 (A): 3.8 pmol/L
GLP-1 secretion; 30 minutes after ingestion of the load, p<0.05
  GLP-1 release compared to water: significantly elevated
GLP-1 secretion; 30 minutes after ingestion
  GLP-1 (A): 4.6^# pmol/l
GLP-1 secretion; 60 minutes after ingestion
  GLP-1 (A): 3.5 pmol/L
GLP-1 secretion; 90 minutes after ingestion
  GLP-1 (A): 3.2 pmol/L
GLP-1 secretion; 120 minutes after ingestion
  GLP-1 (A): 3.7 pmol/L
GLP-1 secretion; 240 minutes after ingestion
  GLP-1 (A): 3.7 pmol/L
[1]
  galactose levels: increased galactose levels significantly
[2]; 0 minutes
  C-peptide (A): 0.61 nmol/L
[2]; 30 minutes after ingestion
  C-peptide (A): 1.03^# nmol/l
[2]; 60 minutes after ingestion
  C-peptide (A): 0.89^# nmol/l
[2]; 120 minutes after ingestion
  C-peptide (A): 0.88 nmol/L
[3]; 0 minutes
  Satiety (B): 27^ mm
[3]; 30 minutes
  Satiety (B): 34# mm
[3]; 60 minutes
  Satiety (B): 33# mm
[3]; 90 minutes
  Satiety (B): 25# mm
[3]; 120 minutes
  Satiety (B): 31# mm
[3]; 240 minutes
  Satiety (B): 20^ mm
Insulin release; 0 minutes
  Insulin (B): 7.3 mU/l
Insulin release; 30 minutes after ingestion
  Insulin (B): 21# mU/l
Insulin release; 60 minutes after ingestion
  Insulin (B): 13 mU/l
Insulin release; 90 minutes after ingestion
  Insulin (B): 12 mU/l
Insulin release; 120 minutes after ingestion
  Insulin (B): 9.9 mU/l
Insulin release; 240 minutes after ingestion
  Insulin (B): 4.7 mU/l
